± gives the expanded uncertainty stated by the source.
Experiment: xn = mol fraction of the nth substance listed
Conditions: 100 kPa, Liquid, Vibrating tube method, x2 = 0.3333

NC(N)=O [urea] + C[N+](C)(C)CCO.[Cl-]
mass density (293.15 K): 1199.42 ± 1.2 kg/m3
mass density (298.15 K): 1196.68 ± 1.2 kg/m3
mass density (303.15 K): 1193.96 ± 1.2 kg/m3
mass density (308.15 K): 1191.19 ± 1.2 kg/m3
mass density (313.15 K): 1188.52 ± 1.2 kg/m3
mass density (318.15 K): 1185.87 ± 1.2 kg/m3
mass density (323.15 K): 1183.2 ± 1.2 kg/m3
mass density (328.15 K): 1180.53 ± 1.2 kg/m3
mass density (333.15 K): 1177.87 ± 1.2 kg/m3
mass density (338.15 K): 1175.22 ± 1.2 kg/m3

Reference: the NIST ThermoML archive (doi:10.1021/acs.jced.9b00145)
